Structures can show the parent of a compound that is named as a salt.
Legend:
[1] = biological target: T1, proMMP9(67-444;ΔFnII) (SEQ ID NO:5) (Homo sapiens, UniProt P14780, DEL216-390); test: ThermoFluor binding assay with proMMP9(67-444;ΔFnII)
T1 construct: start methionine (N); made in house; host or cells: E. coli BL21(DE3) RIL
T1 sequence (P14780 with tags, fused parts or gaps DEL216-390): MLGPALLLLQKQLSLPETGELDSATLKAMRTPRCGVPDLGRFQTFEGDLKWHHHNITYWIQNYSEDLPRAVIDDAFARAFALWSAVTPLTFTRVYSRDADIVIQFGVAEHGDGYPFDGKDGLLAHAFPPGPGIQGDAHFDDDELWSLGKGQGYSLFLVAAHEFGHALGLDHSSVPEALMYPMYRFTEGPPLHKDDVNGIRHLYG
In short: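 Thermal shift with 3.5 μM desalted proMMP9(67-444;ΔFnII) and 50 μM 1,8-ANS in 50 mM HEPES pH 7.0, 100 mM NaCl, 0.001% Tween-20, 2.5 mM MgCl2, 300 μM CaCl2; compounds serially diluted. Heated 40–90 °C at 1 °C/min, fluorescence at 500 nm; Tm fit, binding modelled using DSC-derived thermodynamic parameters.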

[2] = biological target: T2, proMMP9(20-445;ΔFnII) (SEQ ID NO:6) (Homo sapiens, UniProt P14780, DEL216-390); test: ThermoFluor binding assay with proMMP9(20-445;ΔFnII)
T2 construct: start methionine (N); made in house; host or cells: E. coli BL21(DE3) RIL
T2 sequence (P14780 with tags, fused parts or gaps DEL216-390): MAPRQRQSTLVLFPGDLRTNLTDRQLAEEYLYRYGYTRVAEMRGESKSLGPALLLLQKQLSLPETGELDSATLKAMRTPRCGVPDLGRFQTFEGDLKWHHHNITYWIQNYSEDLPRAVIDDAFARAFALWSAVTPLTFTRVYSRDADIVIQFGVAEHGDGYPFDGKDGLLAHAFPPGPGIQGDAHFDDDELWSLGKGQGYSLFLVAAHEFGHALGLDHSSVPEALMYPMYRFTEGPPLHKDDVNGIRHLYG
In short: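 Thermal-shift binding using 2.8 μM proMMP9(20-445;ΔFnII) with 50 μM 1,8-ANS in 50 mM HEPES pH 7.0, 100 mM NaCl, 0.001% Tween-20, 2.5 mM MgCl2, 300 μM CaCl2. Compound serially diluted; heated 40–90 °C at 1 °C/min, fluorescence 500 nm. Tm shifts fitted using DSC/ThermoFluor-derived thermodynamic parameters.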

[3] = biological target: T3, full-length proMMP9(1-707) (SEQ ID NO:1), activation by catalytic MMP3 (Homo sapiens, UniProt P14780, R574P); test: proMMP9/MMP3 P126 Activation Assay; assay type: biochemical
T3 construct: made in house; host or cells: HEK293 (proMMP9, secreted); E. coli (MMP3)
Method: proMMP9/MMP3 P126 Activation Assay
The reaction volume was 50 μL. […] Reactivity of residual MMP3 towards P-126 substrate was minimal under these conditions.

[4] = biological target: T4, proMMP13(1-268) (SEQ ID NO:7) (Homo sapiens, UniProt P45452); test: ThermoFluor binding assay with proMMP13(1-268)
T4 construct: 6xHis (C); made in house; host or cells: HEK293 (transient, secreted)
Method: The ThermoFluor® (TF) assay is a 384-well plate-based binding assay that measures thermal stability of proteins (Biomol Screen 2001, 6, 429-40; Biochemistry 2005, 44, 5258-66). The experiments were carried out using instruments available from Johnson & Johnson Pharmaceutical Research & Development, LLC. TF dye used in all experiments was […] (1,8-ANS) (Invitrogen: A-47).
Compounds were arranged in a pre-dispensed plate (Greiner Bio-one: 781280), wherein compounds were serially diluted in 100% DMSO across 11 columns within a series. Columns 12 and 24 were used as DMSO reference and contained no compound. For multiple compound concentration-response experiments, the compound aliquots ([…]) were robotically predispensed directly into black 384-well polypropylene PCR microplates (Abgene: TF-0384/k) using a Cartesian Hummingbird liquid handler (DigiLab, Holliston, Mass.). Following compound dispense, protein and dye solutions were added to achieve the final assay volume of 3 μL. The assay solutions were overlayed with 1 μL of silicone oil (Fluka, type DC 200: 85411) to prevent evaporation.
Assay plates were robotically loaded onto a thermostatically controlled PCR-type thermal block and then heated from 40 to 90° C. at a ramp-rate of 1° C./min for all experiments. Fluorescence was measured by continuous illumination with UV light (Hamamatsu LC6) supplied via fiber optics and filtered through a band-pass filter (380-400 nm; >60D cutoff). Fluorescence emission of the entire 384-well plate was detected by measuring light intensity using a CCD camera (Sensys, Roper Scientific) filtered to detect 500±25 nm, resulting in simultaneous and independent readings of all 384 wells. A single image with 20-sec exposure time was collected at each temperature, and the sum of the pixel intensity in a given area of the assay plate was recorded vs temperature and fit to standard equations to yield the Tm (J Biomol Screen 2001, 6, 429-40).
Thermodynamic parameters necessary for fitting compound binding for each proMMP were estimated by differential scanning calorimetry (DSC) and from ThermoFluor® data. The heat capacity of unfolding for each protein was estimated from the molecular weight and from ThermoFluor® dosing data.
ThermoFluor® with proMMP13(1-268) (SEQ ID NO: 7)
The proMMP13(1-268) (SEQ ID NO:7) protein sample preparations included a desalting buffer exchange step via a PD-10 gravity column (GE Healthcare). The desalting buffer exchange was performed prior to diluting the protein to the final assay concentration of 3.5 μM. The concentration of proMMP13(1-268) (SEQ ID NO:7) was estimated spectrophotometrically based on a calculated extinction coefficient of ε280=37000 M^−1cm^−1, a calculated molecular weight of 30.8 kDa, and calculated pI of 5.33. ThermoFluor® reference conditions were defined as follows: 100 μg/mL proMMP13(1-268) (SEQ ID NO:7), 25 μM 1,8-ANS, pH 7.0 Buffer (50 mM HEPES pH 7.0, 100 mM NaCl, 0.001% Tween-20, 2.5 mM MgCl2, 300 μM CaCl2). The thermodynamic parameters for proMMP13(1-268) (SEQ ID NO:7) are as follows: Tm (° C.)=67 (+/−0.1), ΔUH(Tm) (cal mol^−1)=107000(+/−5000), ΔUS(Tm) (cal mol^−1 K^−1)=318, ΔUCp (cal mol^−1 K^−1)=2600.

[5] = biological target: T5, proMMP13(1-268) (SEQ ID NO:7), activation by plasmin (Homo sapiens, UniProt P45452); test: ProMMP13/Plasmin P126 Activation Assay; assay type: biochemical
T5 construct: 6xHis (C); made in house; host or cells: HEK293 (proMMP13, secreted)
Method: ProMMP13/Plasmin P126 Activation Assay
On the day of assay, proMMP13(1-268) (SEQ ID NO:7) purified from HEK293 cells and plasmin were diluted to 160 nM and 320 nM, respectively, in assay buffer. The reaction volume was 50 μL. […] The plate was sealed and incubated for 40 min at 37° C. […] Plasmin was not reactive towards P-126 substrate under these conditions.

[6] = biological target: T6, full-length proMMP9(1-707) (SEQ ID NO:1) from COS-1 cells, activation by catalytic MMP3 (Homo sapiens, UniProt P14780, R574P); test: ProMMP9/MMP3 DQ Gelatin Activation Assay; assay type: biochemical; details: read-out: ProMMP9/MMP3 DQ gel Activation Assay, IC50
T6 construct: made in house; host or cells: COS-1 (proMMP9, secreted); E. coli (MMP3)
Text: ProMMP9/MMP3 DQ Gelatin Activation Assay

T3 sequence (P14780 20-707 R574P): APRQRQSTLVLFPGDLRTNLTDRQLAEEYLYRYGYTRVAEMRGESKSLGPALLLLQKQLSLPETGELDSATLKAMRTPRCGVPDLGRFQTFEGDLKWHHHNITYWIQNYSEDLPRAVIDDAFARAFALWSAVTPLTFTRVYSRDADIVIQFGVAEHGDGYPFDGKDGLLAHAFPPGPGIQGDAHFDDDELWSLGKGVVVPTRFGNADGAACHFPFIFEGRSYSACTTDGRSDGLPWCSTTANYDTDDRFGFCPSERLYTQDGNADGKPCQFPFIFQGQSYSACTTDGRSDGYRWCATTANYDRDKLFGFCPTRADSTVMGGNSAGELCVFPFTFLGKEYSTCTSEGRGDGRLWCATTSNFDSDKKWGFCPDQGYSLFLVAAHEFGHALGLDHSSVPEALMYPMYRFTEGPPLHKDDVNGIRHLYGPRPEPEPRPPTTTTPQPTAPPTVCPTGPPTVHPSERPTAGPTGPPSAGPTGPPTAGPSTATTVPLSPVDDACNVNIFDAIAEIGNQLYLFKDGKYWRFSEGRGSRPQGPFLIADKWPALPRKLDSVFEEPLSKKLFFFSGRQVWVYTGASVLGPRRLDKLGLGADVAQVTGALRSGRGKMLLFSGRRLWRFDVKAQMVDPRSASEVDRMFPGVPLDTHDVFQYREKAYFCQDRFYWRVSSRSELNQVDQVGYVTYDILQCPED
T6 sequence (P14780 20-707 R574P): as above

| Kd [1] | Kd [2] | IC50 [3] | Kd [4] | IC50 [5] | IC50 [6] | SMILES |
| --- | --- | --- | --- | --- | --- | --- |
| 3300 nM | 320 nM | 680 nM | 250 nM |  |  | CC(C)Oc1ccc(C(N)=O)cc1Nc1nc(-c2ccc(Cl)nc2)cs1 [Example 26, 3-[4-(6-Chloro-pyridin-3-yl)-thiazol-2-ylamino]-4-isopropoxy-benzamide.TFA] |
| 380 nM | 39 nM | 150 nM | 280 nM | 900 nM |  | CC(C)Oc1ccc(C(N)=O)cc1Nc1nc(-c2ccc(N3CCN(C)CC3)nc2)cs1 [Example 27, 4-Isopropoxy-3-{4-[6-(4-methyl-piperazin-1-yl)-pyridin-3-yl]-thiazol-2-ylamino}-benzamide.TFA] |
| > 95000 nM | > 95000 nM |  | 78000 nM |  | 5500 nM | COc1ccc([N+](=O)[O-])cc1Nc1nc(-c2cccnc2)cs1 [Example 60, (2-Methoxy-5-nitro-phenyl)-(4-pyridin-3-yl-thiazol-2-yl)-amine] |
